Results published in patent US10758534B2 (Vertex Pharmaceuticals Incorporated, priority 2014, dated 2020).

biological target: T1, F508del (Homo sapiens, UniProt P13569, DEL508-508); experiment: Protocol 2: FRET membrane potential optical assay (VIPR), identification of correction compounds; type: cell-based; conditions: F508del CFTR modulator activity; compounds of Table 1; read-out: EC30
T1 construct: expressed in transfected cells
Summary of the method: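 Mouse NIH3T3 cells, stable F508del; cpd 16 hrs, 37° C., serum-free; pos ctrl 27° C. 16 hrs. Rinse in Krebs Ringers, dye load, then add 10 μM forskolin + 20 μM genistein with Cl^−-free (gluconate) medium; depolarization by FRET voltage dyes.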

T1 sequence (P13569 with tags, fused parts or gaps DEL508-508): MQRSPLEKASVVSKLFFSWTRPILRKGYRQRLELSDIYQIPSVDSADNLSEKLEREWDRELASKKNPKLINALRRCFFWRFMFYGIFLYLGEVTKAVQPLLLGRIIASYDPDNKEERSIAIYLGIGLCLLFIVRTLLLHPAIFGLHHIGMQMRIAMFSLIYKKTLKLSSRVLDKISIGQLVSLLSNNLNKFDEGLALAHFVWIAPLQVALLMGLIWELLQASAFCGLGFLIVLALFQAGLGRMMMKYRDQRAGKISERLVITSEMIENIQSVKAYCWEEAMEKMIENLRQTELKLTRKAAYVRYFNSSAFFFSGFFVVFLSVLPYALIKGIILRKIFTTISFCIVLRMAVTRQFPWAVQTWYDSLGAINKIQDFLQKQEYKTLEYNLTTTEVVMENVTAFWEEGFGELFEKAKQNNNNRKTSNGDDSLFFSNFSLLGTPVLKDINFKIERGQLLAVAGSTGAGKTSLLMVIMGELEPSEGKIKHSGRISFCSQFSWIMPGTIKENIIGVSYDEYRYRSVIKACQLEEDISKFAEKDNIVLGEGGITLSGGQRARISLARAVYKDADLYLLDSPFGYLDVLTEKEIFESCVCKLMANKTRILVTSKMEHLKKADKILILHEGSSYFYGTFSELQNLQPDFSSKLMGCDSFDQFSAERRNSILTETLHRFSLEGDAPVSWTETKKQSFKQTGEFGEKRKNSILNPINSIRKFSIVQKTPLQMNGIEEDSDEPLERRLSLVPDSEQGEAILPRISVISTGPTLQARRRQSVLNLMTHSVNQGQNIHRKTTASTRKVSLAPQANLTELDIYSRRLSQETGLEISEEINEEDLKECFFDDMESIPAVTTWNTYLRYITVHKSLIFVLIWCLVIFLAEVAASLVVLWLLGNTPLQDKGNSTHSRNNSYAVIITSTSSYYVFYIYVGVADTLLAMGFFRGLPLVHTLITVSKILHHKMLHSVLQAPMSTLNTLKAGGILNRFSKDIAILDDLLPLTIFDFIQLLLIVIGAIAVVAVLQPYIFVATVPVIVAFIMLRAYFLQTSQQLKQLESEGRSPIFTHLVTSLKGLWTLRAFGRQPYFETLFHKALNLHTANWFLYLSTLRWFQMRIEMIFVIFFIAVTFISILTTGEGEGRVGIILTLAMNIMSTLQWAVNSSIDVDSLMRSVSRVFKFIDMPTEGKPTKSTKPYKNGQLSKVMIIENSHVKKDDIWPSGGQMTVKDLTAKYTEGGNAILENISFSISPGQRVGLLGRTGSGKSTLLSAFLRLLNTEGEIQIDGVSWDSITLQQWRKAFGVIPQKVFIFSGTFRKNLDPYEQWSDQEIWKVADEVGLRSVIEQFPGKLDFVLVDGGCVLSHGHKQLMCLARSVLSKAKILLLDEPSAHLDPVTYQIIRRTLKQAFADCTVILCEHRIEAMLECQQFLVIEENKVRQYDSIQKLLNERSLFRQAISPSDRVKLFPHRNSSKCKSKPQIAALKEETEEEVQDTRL

Q: `CC(C)Oc1c(F)cc(-c2ccc(C(=O)NS(=O)(=O)c3cccc(N)n3)c(N3C[C@@H](C)CC3(C)C)n2)cc1F` [Compound 2608, N-[(6-amino-2-pyridyl)sulfonyl]-6-(3,5-difluoro-4-isopropoxy-phenyl)-2-[(4S)-2,2,4-trimethylpyrrolidin-1-yl]pyridine-3-carboxamide] was tested. Which EC30 did it give?
A: < 3000 nM

Q: For `Cc1nn(C)c(C)c1-c1ccc(C(=O)NS(=O)(=O)c2cccnc2N)c(N2C[C@@H](C)CC2(C)C)n1` [Compound 2668, N-[(2-amino-3-pyridyl)sulfonyl]-6-(1,3,5-trimethylpyrazol-4-yl)-2-[(4S)-2,2,4-trimethylpyrrolidin-1-yl]pyridine-3-carboxamide], which EC30 is on record?
A: 3000 to 10000 nM

Q: How did the EC30 turn out when `CC(C)Oc1ccccc1-c1ccc(C(=O)NS(=O)(=O)c2cccnc2N)c(N2C[C@@H](C)CC2(C)C)n1` [Compound 2623, N-[(2-amino-3-pyridyl)sulfonyl]-6-(2-isopropoxyphenyl)-2-[(4S)-2,2,4-trimethylpyrrolidin-1-yl]pyridine-3-carboxamide] was run?
A: 3000 to 10000 nM

Q: Which EC30 does the source give for `CC1CN(c2ncc(-c3ccc(Cl)cc3)cc2C(=O)NS(=O)(=O)c2cccc(N)n2)C(C)(C)C1` (stereo not shown) [Compound 2399, N-[(6-amino-2-pyridyl)sulfonyl]-5-(4-chlorophenyl)-2-(2,2,4-trimethylpyrrolidin-1-yl)pyridine-3-carboxamide] here?
A: < 3000 nM

Q: Which EC30 does the source give for `C[C@@H]1CN(c2nc(-c3cc(F)ccc3O)ccc2C(=O)NS(=O)(=O)c2cccnc2N)C(C)(C)C1` [Compound 2046, N-[(2-amino-3-pyridyl)sulfonyl]-6-(5-fluoro-2-hydroxy-phenyl)-2-[(4S)-2,2,4-trimethylpyrrolidin-1-yl]pyridine-3-carboxamide] here?
A: < 3000 nM

Q: For `CCOCCNc1ncc(-c2ccc(C(=O)NS(=O)(=O)c3cccc(N)n3)c(N3C[C@@H](C)CC3(C)C)n2)cc1C` [Compound 2683], which EC30 is on record?
A: < 3000 nM

Q: With `C[C@@H]1CN(c2nc(C(C)(C)C)c(C3=CCN(C(=O)NC4CCCCC4)CC3)cc2C(=O)NS(=O)(=O)c2cccc(N)n2)C(C)(C)C1` [Compound 2520, N-[(6-amino-2-pyridyl)sulfonyl]-6-tert-butyl-5-[1-(cyclohexylcarbamoyl)-3,6-dihydro-2H-pyridin-4-yl]-2-[(4S)-2,2,4-trimethylpyrrolidin-1-yl]pyridine-3-carboxamide] as the molecule, how does the EC30 read?
A: 3000 to 10000 nM

Q: `CC1CN(c2ncccc2C(=O)NS(=O)(=O)c2cccc(Nc3cccc4ncccc34)n2)C(C)(C)C1` (stereo not shown) [Compound 2074, N—[[6-(5-quinolylamino)-2-pyridyl]sulfonyl]-2-(2,2,4-trimethylpyrrolidin-1-yl)pyridine-3-carboxamide] was tested. Which EC30 did it give?
A: 3000 to 10000 nM

Q: Which EC30 does the source give for `CC1CN(c2ncccc2C(=O)NS(=O)(=O)c2cccc(Oc3cccc(Cl)c3F)n2)C(C)(C)C1` (stereo not shown) [Compound 2165, N—[[6-(3-chloro-2-fluoro-phenoxy)-2-pyridyl]sulfonyl]-2-(2,2,4-trimethylpyrrolidin-1-yl)pyridine-3-carboxamide] here?
A: < 3000 nM

Q: `CC1CN(c2nc(OC(C)C)c(F)cc2C(=O)NS(=O)(=O)c2cccc(N)n2)C(C)(C)C1` (stereo not shown) [Compound 2230, N-[(6-amino-2-pyridyl)sulfonyl]-5-fluoro-6-isopropoxy-2-(2,2,4-trimethylpyrrolidin-1-yl)pyridine-3-carboxamide] was tested. Which EC30 did it give?
A: < 3000 nM

Q: With `C[C@@H]1CN(c2nc(-c3cccc(OC(F)(F)F)c3)ccc2C(=O)NS(=O)(=O)c2cccc(N)n2)C(C)(C)C1` [Compound 2366, N-[(6-amino-2-pyridyl)sulfonyl]-6-[3-(trifluoromethoxy)phenyl]-2-[(4S)-2,2,4-trimethylpyrrolidin-1-yl]pyridine-3-carboxamide] as the molecule, how does the EC30 read?
A: < 3000 nM

Q: With `COc1ccc(F)c(-c2ccc(C(=O)NS(=O)(=O)c3ccc[nH]c3=O)c(N3C[C@@H](C)CC3(C)C)n2)c1` [Compound 2606, 6-(2-fluoro-5-methoxy-phenyl)-N-[(2-oxo-1H-pyridin-3-yl)sulfonyl]-2-[(4S)-2,2,4-trimethylpyrrolidin-1-yl]pyridine-3-carboxamide] as the molecule, how does the EC30 read?
A: < 3000 nM

Q: How did the EC30 turn out when `CC1CN(c2ncccc2C(=O)NS(=O)(=O)c2cccc(Nc3ccc(N4CCCCC4)cc3)n2)C(C)(C)C1` (stereo not shown) [Compound 2087, N—[[6-[4-(1-piperidyl)anilino]-2-pyridyl]sulfonyl]-2-(2,2,4-trimethylpyrrolidin-1-yl)pyridine-3-carboxamide] was run?
A: < 3000 nM

Q: For `Cc1cc(F)cc(-c2ccc(C(=O)NS(=O)(=O)c3cccc(N)n3)c(N3C[C@@H](C)CC3(C)C)n2)c1` [Compound 2638, N-[(6-amino-2-pyridyl)sulfonyl]-6-(3-fluoro-5-methyl-phenyl)-2-[(4S)-2,2,4-trimethylpyrrolidin-1-yl]pyridine-3-carboxamide], which EC30 is on record?
A: < 3000 nM

same assay, conditions: Table 3; compounds of Table 1 as modulators of CFTR activity; protocol not stated

Q: With `Cc1cc(C)c(Cn2nc(OCc3ccccc3)cc2C(=O)NS(=O)(=O)c2cccc(N)c2)c(C)c1` [Compound 42, N-(3-aminophenyl)sulfonyl-5-benzyloxy-2-[(2,4,6-trimethylphenyl)methyl]pyrazole-3-carboxamide] as the molecule, how does the EC30 read?
A: ++ (“++” means between 3 uM and 10 uM)

Q: Which EC30 does the source give for `Cc1cc(C)c(Cn2nc(C(C)(C)C)cc2C(=O)NS(=O)(=O)c2cccc3[nH]ccc23)c(C)c1` [Compound 180, 5-tert-butyl-N-(1H-indol-4-ylsulfonyl)-2-[(2,4,6-trimethylphenyl)methyl]pyrazole-3-carboxamide] here?
A: +++ (“+++” means <3 uM)

Q: For `Cc1cc(C)c(Oc2nc(-c3cccc(CC#N)c3)ccc2C(=O)NS(=O)(=O)c2cccc(N)n2)c(C)c1` [Compound 388, N-[(6-amino-2-pyridyl)sulfonyl]-6-[3-(cyanomethyl)phenyl]-2-(2,4,6-trimethylphenoxy)pyridine-3-carboxamide], which EC30 is on record?
A: ++ (“++” means between 3 uM and 10 uM)

Q: Which EC30 does the source give for `CCOc1ccc(-c2ccc(C(=O)NS(=O)(=O)c3nccnc3N)c(N3CCC(C)CC3)n2)cc1` [Compound 507, N-(3-aminopyrazin-2-yl)sulfonyl-6-(4-ethoxyphenyl)-2-(4-methyl-1-piperidyl)pyridine-3-carboxamide] here?
A: +++ (“+++” means <3 uM)

Q: `Cc1cc(C)c(CN2Cc3c(-c4ccccc4)cccc3C2C(=O)NS(=O)(=O)c2ccc[nH]c2=O)c(C)c1` (stereo not shown) [Compound 508, N-[(2-oxo-1H-pyridin-3-yl)sulfonyl]-4-phenyl-2-[(2,4,6-trimethylphenyl)methyl]isoindoline-1-carboxamide] was tested. Which EC30 did it give?
A: ++ (“++” means between 3 uM and 10 uM)

Q: `Cc1cc(C)c(Oc2nc(C3CCC(C)CC3)ccc2C(=O)NS(=O)(=O)c2cccc(N)n2)c(C)c1` (stereo not shown) [Compound 172, N-[(6-amino-2-pyridyl)sulfonyl]-6-(4-methylcyclohexyl)-2-(2,4,6-trimethylphenoxy)pyridine-3-carboxamide] was tested. Which EC30 did it give?
A: +++ (“+++” means <3 uM)

Q: Which EC30 does the source give for `CC(C)COc1cc(F)cc(-c2ccc(C(=O)NS(=O)(=O)c3ccn[nH]3)c(N3CCc4ccccc43)n2)c1` [Compound 739, 6-(3-fluoro-5-isobutoxy-phenyl)-2-indolin-1-yl-N-(1H-pyrazol-5-ylsulfonyl)pyridine-3-carboxamide] here?
A: ++ (“++” means between 3 uM and 10 uM)

Q: For `Cc1ccc(Oc2nc3c(cc2C(=O)NS(=O)(=O)c2cccc(N)n2)CCCC3(C)C)c(C)c1` [Compound 15, N-[(6-amino-2-pyridyl)sulfonyl]-2-(2,4-dimethylphenoxy)-8,8-dimethyl-6,7-dihydro-5H-quinoline-3-carboxamide], which EC30 is on record?
A: +++ (“+++” means <3 uM)

Q: How did the EC30 turn out when `Cc1cccc(C)c1Cn1nc(-c2ccccc2Cl)cc1C(=O)NS(=O)(=O)c1ccccc1` [Compound 339, N-(benzenesulfonyl)-5-(2-chlorophenyl)-2-[(2,6-dimethylphenyl)methyl]pyrazole-3-carboxamide] was run?
A: +++ (“+++” means <3 uM)

Q: With `Cc1cc(C)c(Cn2c(C(=O)NS(=O)(=O)c3cccc(N)c3)cc3cc(Cl)ccc32)c(C)c1` [Compound 344, N-(3-aminophenyl)sulfonyl-5-chloro-1-[(2,4,6-trimethylphenyl)methyl]indole-2-carboxamide] as the molecule, how does the EC30 read?
A: +++ (“+++” means <3 uM)

Q: With `CC(C)(C)c1ccc(C(=O)NS(=O)(=O)c2cccc(N)n2)c(C2=CCCC2)n1` [Compound 529, N-[(6-amino-2-pyridyl)sulfonyl]-6-tert-butyl-2-(cyclopenten-1-yl)pyridine-3-carboxamide] as the molecule, how does the EC30 read?
A: ++ (“++” means between 3 uM and 10 uM)

Q: `Cc1cc(C)c(Oc2nc(C(C)(C)C)ccc2C(=O)NS(=O)(=O)c2cccc(N)c2)c(C)c1` [Compound 294, N-(3-aminophenyl)sulfonyl-6-tert-butyl-2-(2,4,6-trimethylphenoxy)pyridine-3-carboxamide] was tested. Which EC30 did it give?
A: +++ (“+++” means <3 uM)

Q: For `CC[C@@H]1CCCN1c1nc(-c2cc(F)cc(OCC(C)C)c2)ccc1C(=O)NS(=O)(=O)c1ccn[nH]1` [Compound 591, 2-(2-ethylpyrrolidin-1-yl)-6-(3-fluoro-5-isobutoxy-phenyl)-N-(1H-pyrazol-5-ylsulfonyl)pyridine-3-carboxamide], which EC30 is on record?
A: +++ (“+++” means <3 uM)

Q: For `CC(C)COc1cc(F)cc(-c2ccc(C(=O)NS(=O)(=O)c3cccc(N)n3)c(N3CCC(C)C3C)n2)c1` (stereo not shown) [Compound 720, N-[(6-amino-2-pyridyl)sulfonyl]-2-(2,3-dimethylpyrrolidin-1-yl)-6-(3-fluoro-5-isobutoxy-phenyl)pyridine-3-carboxamide], which EC30 is on record?
A: +++ (“+++” means <3 uM)

Q: With `Cc1cccc(C)c1Cn1nc(C(C)(C)C)cc1C(=O)NS(=O)(=O)c1ccccc1` [Compound 257, N-(benzenesulfonyl)-5-tert-butyl-2-[(2,6-dimethylphenyl)methyl]pyrazole-3-carboxamide] as the molecule, how does the EC30 read?
A: +++ (“+++” means <3 uM)

Q: Which EC30 does the source give for `COc1ccc(S(=O)(=O)NC(=O)c2ccc(C(C)(C)C)nc2-c2ccc(C)cc2)cc1` [Compound 206, 6-tert-butyl-N-(4-methoxyphenyl)sulfonyl-2-(p-tolyl)pyridine-3-carboxamide] here?
A: +++ (“+++” means <3 uM)

Q: `C[C@@H]1CC[C@H](C)N1c1nc(-c2ccccc2)ccc1C(=O)NS(=O)(=O)c1ccc[nH]c1=O` [Compound 660, 2-[(2S,5R)-2,5-dimethylpyrrolidin-1-yl]-N-[(2-oxo-1H-pyridin-3-yl)sulfonyl]-6-phenyl-pyridine-3-carboxamide] was tested. Which EC30 did it give?
A: + (“+” means greater than 10 uM)
